Values after ≈ are worked out from the molar mass of the structure shown.
Experiments:
Macrophomina phaseolina [1] = assay: In vivo effect on peroxidase activity in Macrophomina phaseoli assessed as DNA content at 0.25 times of IC50 concentration (reference value: 15.5 +/- 0.5 mg/l); type: functional
Macrophomina phaseolina [2] = assay: In vivo effect on peroxidase activity in Macrophomina phaseoli assessed as RNA content at 2 times of IC50 concentration (reference value: 16.1 +/- 0.4 mg/l); type: functional
Macrophomina phaseolina [3] = assay: In vivo effect on peroxidase activity in Macrophomina phaseoli assessed as RNA content at 1 times of IC50 concentration (reference value: 16.1 +/- 0.4 mg/l); type: functional
Macrophomina phaseolina [4] = assay: In vivo effect on peroxidase activity in Macrophomina phaseoli assessed as RNA content at 0.5 times of IC50 concentration (reference value: 16.1 +/- 0.4 mg/l); type: functional
Rhizoctonia solani [5] = assay: In vivo effect on peroxidase activity in Rhizoctonia solani assessed as total soluble sugar content per gram of dry hyphal at 0.5 times of IC50 concentration (reference value: 20.1 +/- 0.8 mg/g of dry weight); type: functional
Macrophomina phaseolina [6] = assay: In vivo effect on peroxidase activity in Macrophomina phaseoli assessed as reduced sugar content per gram of dry hyphal at 0.5 times of IC50 concentration (reference value: 7.3 +/- 0.5 mg/g of dry weight); type: functional
Rhizoctonia solani [7] = assay: In vivo effect on peroxidase activity in Rhizoctonia solani assessed as DNA content at 1 times of IC50 concentration (reference value: 24 +/- 0.7 mg/l); type: functional
Rhizoctonia solani [8] = assay: In vivo effect on peroxidase activity in Rhizoctonia solani assessed as DNA content at 0.1 times of IC50 concentration (reference value: 24 +/- 0.7 mg/l); type: functional
Rhizoctonia solani [9] = assay: In vivo effect on peroxidase activity in Rhizoctonia solani assessed as RNA content at 2 times of IC50 concentration (reference value: 25 +/- 0.7 mg/l); type: functional
Rhizoctonia solani [10] = assay: In vivo effect on peroxidase activity in Rhizoctonia solani assessed as RNA content at 1 times of IC50 concentration (reference value: 25 +/- 0.7 mg/l); type: functional
Rhizoctonia solani [11] = assay: In vivo effect on peroxidase activity in Rhizoctonia solani assessed as RNA content at 0.25 times of IC50 concentration (reference value: 25 +/- 0.7 mg/l); type: functional
[12] = system: Globisporangium debaryanum; assay: In vivo effect on peroxidase activity in Pythium debaryanum assessed as DNA content at 1 times of IC50 concentration (reference value: 31 +/- 0.8 mg/l); type: functional
[13] = system: Globisporangium debaryanum; assay: In vivo effect on peroxidase activity in Pythium debaryanum assessed as DNA content at 0.5 times of IC50 concentration (reference value: 31 +/- 0.8 mg/l); type: functional
[14] = system: Globisporangium debaryanum; assay: In vivo effect on peroxidase activity in Pythium debaryanum assessed as RNA content at 2 times of IC50 concentration (reference value: 32.2 +/- 0.7 mg/l); type: functional
[15] = system: Globisporangium debaryanum; assay: In vivo effect on peroxidase activity in Pythium debaryanum assessed as RNA content at 1 times of IC50 concentration (reference value: 32.2 +/- 0.7 mg/l); type: functional
[16] = system: Globisporangium debaryanum; assay: In vivo effect on peroxidase activity in Pythium debaryanum assessed as RNA content at 0.5 times of IC50 concentration (reference value: 32.2 +/- 0.7 mg/l); type: functional
[17] = system: Globisporangium debaryanum; assay: In vivo effect on peroxidase activity in Pythium debaryanum assessed as RNA content at 0.25 times of IC50 concentration (reference value: 32.2 +/- 0.7 mg/l); type: functional
[18] = system: Globisporangium debaryanum; assay: In vivo effect on peroxidase activity in Pythium debaryanum assessed as RNA content at 0.1 times of IC50 concentration (reference value: 32.2 +/- 0.7 mg/l); type: functional
Macrophomina phaseolina [19] = assay: In vivo effect on peroxidase activity in Macrophomina phaseoli assessed as DNA content at 2 times of IC50 concentration (reference value: 15.5 +/- 0.5 mg/l); type: functional
Rhizoctonia solani [20] = assay: In vivo effect on peroxidase activity in Rhizoctonia solani assessed as non-reducing sugar content per gram of dry hyphal at 0.1 times of IC50 concentration (reference value: 2.8 +/- 0.2 mg/g of dry weight); type: functional
Rhizoctonia solani [21] = assay: In vivo effect on peroxidase activity in Rhizoctonia solani assessed as reduced sugar content per gram of dry hyphal at 0.1 times of IC50 concentration (reference value: 17.3 +/- 1 mg/g of dry weight); type: functional
Macrophomina phaseolina [22] = assay: In vivo effect on peroxidase activity in Macrophomina phaseoli assessed as non-reducing sugar content per gram of dry hyphal at 0.5 times of IC50 concentration (reference value: 12 +/- 0.8 mg/g of dry weight); type: functional
Macrophomina phaseolina [23] = assay: In vivo effect on peroxidase activity in Macrophomina phaseoli assessed as non-reducing sugar content per gram of dry hyphal at 0.1 times of IC50 concentration (reference value: 12 +/- 0.8 mg/g of dry weight); type: functional
Fusarium culmorum [24] = assay: In vivo effect on peroxidase activity in Fusarium culmorum assessed as DNA content at 2 times of IC50 concentration (reference value: 49.5 +/- 1.6 mg/l); type: functional
Fusarium culmorum [25] = assay: In vivo effect on peroxidase activity in Fusarium culmorum assessed as DNA content at 1 times of IC50 concentration (reference value: 49.5 +/- 1.6 mg/l); type: functional
Fusarium culmorum [26] = assay: In vivo effect on peroxidase activity in Fusarium culmorum assessed as DNA content at 0.5 times of IC50 concentration (reference value: 49.5 +/- 1.6 mg/l); type: functional
Fusarium culmorum [27] = assay: In vivo effect on peroxidase activity in Fusarium culmorum assessed as DNA content at 0.1 times of IC50 concentration (reference value: 49.5 +/- 1.6 mg/l); type: functional
Fusarium culmorum [28] = assay: In vivo effect on peroxidase activity in Fusarium culmorum assessed as RNA content at 0.5 times of IC50 concentration (reference value: 51.5 +/- 1.5 mg/l); type: functional
Fusarium culmorum [29] = assay: In vivo effect on peroxidase activity in Fusarium culmorum assessed as RNA content at 0.25 times of IC50 concentration (reference value: 51.5 +/- 1.5 mg/l); type: functional
Fusarium culmorum [30] = assay: In vivo effect on peroxidase activity in Fusarium culmorum assessed as RNA content at 0.1 times of IC50 concentration (reference value: 51.5 +/- 1.5 mg/l); type: functional
[31] = Activation of peroxidase activity in Rhizoctonia solani
[32] = system: Globisporangium debaryanum; assay: Inhibition of peroxidase activity in Pythium debaryanum at 0.25 times of IC50 concentration
[33] = system: Globisporangium debaryanum; assay: Inhibition of peroxidase activity in Pythium debaryanum at 0.1 times of IC50 concentration
Fusarium culmorum [34] = assay: Inhibition of peroxidase activity in Fusarium culmorum at 0.25 times of IC50 concentration
Fusarium culmorum [35] = assay: Inhibition of peroxidase activity in Fusarium culmorum at 0.1 times of IC50 concentration
Fusarium culmorum [36] = assay: Fungicidal activity against Fusarium culmorum assessed as inhibition of hyphal growth by radial growth test; type: functional, organism-based
Rhizoctonia solani [37] = assay: Fungicidal activity against Rhizoctonia solani assessed as inhibition of hyphal growth by radial growth test; type: functional, organism-based
Macrophomina phaseolina [38] = assay: Fungicidal activity against Macrophomina phaseoli assessed as inhibition of hyphal growth by radial growth test; type: functional, organism-based

| Compound | Activity (Macrophomina phaseolina [1]) [mg/L] | Activity (Macrophomina phaseolina [2]) [mg/L] | Activity (Macrophomina phaseolina [3]) [mg/L] | Activity (Macrophomina phaseolina [4]) [mg/L] | Activity (Rhizoctonia solani [5]) [mg] | Activity (Macrophomina phaseolina [6]) [mg] | Activity (Rhizoctonia solani [7]) [mg/L] | Activity (Rhizoctonia solani [8]) [mg/L] | Activity (Rhizoctonia solani [9]) [mg/L] | Activity (Rhizoctonia solani [10]) [mg/L] | Activity (Rhizoctonia solani [11]) [mg/L] | Activity [12] [mg/L] | Activity [13] [mg/L] | Activity [14] [mg/L] | Activity [15] [mg/L] | Activity [16] [mg/L] | Activity [17] [mg/L] | Activity [18] [mg/L] | Activity (Macrophomina phaseolina [19]) [mg/L] | Activity (Rhizoctonia solani [20]) [mg] | other results |
| --- | --- | --- | --- | --- | --- | --- | --- | --- | --- | --- | --- | --- | --- | --- | --- | --- | --- | --- | --- | --- | --- |
| CC(=O)n1c(-c2ccccc2)cc2ccccc21 | 10.3 | 6.7 | 8.5 | 8.6 | 6 | 20.8 | 31.4 | 23.2 | 36.1 | 32.6 | 26.2 | 17.5 | 11.3 | 22.5 | 18.2 | 11.8 | 26.8 | 27 | 6.5 | 2.5 | Activity (Rhizoctonia solani [21]): 9.7 mg; Activity (Macrophomina phaseolina [22]): 10.2 mg; Activity (Macrophomina phaseolina [23]): 1.7 mg; Activity (Fusarium culmorum [24]): 19.5 mg/L; Activity (Fusarium culmorum [25]): 27.2 mg/L; Activity (Fusarium culmorum [26]): 28 mg/L; Activity (Fusarium culmorum [27]): 43.6 mg/L; Activity (Fusarium culmorum [28]): 29.2 mg/L; Activity (Fusarium culmorum [29]): 31.1 mg/L; Activity (Fusarium culmorum [30]): 45.4 mg/L; AC50 [31]: < 11.7 µg/mL; inhibition [32]: 3%; inhibition [33]: 0%; inhibition (Fusarium culmorum [34]): 23.7%; inhibition (Fusarium culmorum [35]): 85%; IC50 (Fusarium culmorum [36]): 86.7 µg/mL (≈ 368 µM); IC50 (Rhizoctonia solani [37]): 37.5 µg/mL (≈ 159 µM); IC50 (Macrophomina phaseolina [38]): 93 µg/mL (≈ 395 µM) |
| c1ccc(-c2cc3ccccc3[nH]2)cc1 [2-PHENYL-1H-INDOLE] | 6.8 | 5.9 | 6.3 | 8.3 | 19.1 | 2.9 | 30.9 | 28.3 | 28 | 32.2 | 30 | 29.4 | 10.9 | 24.2 | 30.6 | 11.4 | 19.8 | 32.1 | 5.7 | 14.1 | Activity (Rhizoctonia solani [21]): 44.3 mg; Activity (Macrophomina phaseolina [22]): 1.4 mg; Activity (Macrophomina phaseolina [23]): 2.4 mg; Activity (Fusarium culmorum [24]): 23.8 mg/L; Activity (Fusarium culmorum [25]): 25.3 mg/L; Activity (Fusarium culmorum [26]): 18 mg/L; Activity (Fusarium culmorum [27]): 28.6 mg/L; Activity (Fusarium culmorum [28]): 18.7 mg/L; Activity (Fusarium culmorum [29]): 24.3 mg/L; Activity (Fusarium culmorum [30]): 29.7 mg/L; AC50 [31]: 14.5 µg/mL (≈ 75 µM); inhibition [32]: 3.7%; inhibition [33]: 19.3%; inhibition (Fusarium culmorum [34]): 26.2%; inhibition (Fusarium culmorum [35]): 7.5%; IC50 (Fusarium culmorum [36]): 67.4 µg/mL (≈ 349 µM); IC50 (Rhizoctonia solani [37]): 34.6 µg/mL (≈ 179 µM); IC50 (Macrophomina phaseolina [38]): 96 µg/mL (≈ 497 µM) |
